Read-outs that look alike come from different tables or passages of the source. Starred links: 1 amine or outer side, 2 acyl side, 3 side chain; linkers in the order of their positions; H or OH if unused. Positions of bridges follow the written chain, without caps; N, C: chain ends. Non-standard residues stand in square brackets, D forms with d. Residues, ends and D or L forms follow the SMILES beside them. X8 = COc1ccc(-n2cc(C[C@H](N[*:1])C(=O)[*:2])c3ccccc32)cc1; Phe(3-OCH2COOH) = N[C@@H](Cc1cccc(OCC(=O)O)c1)C(=O)O; Phe(4-COOH) = N[C@@H](Cc1ccc(C(=O)O)cc1)C(=O)O; Trp(7-aza) = N[C@@H](Cc1c[nH]c2ncccc12)C(=O)O; 3Pal(6-NH2) = Nc1ccc(C[C@H](N)C(=O)O)cn1; Gly(N(CH2)3COOH) = O=C(O)CCCNCC(=O)O; X1 = CCCCCCC[C@H](N[*:1])C(=O)[*:2]; NMeF = CN[C@@H](Cc1ccccc1)C(=O)O; 3Pal = N[C@@H](Cc1cccnc1)C(=O)O; 4Pal = N[C@@H](Cc1ccncc1)C(=O)O; NMeA = CN[C@@H](C)C(=O)O; Sar = CNCC(=O)O
Key:
[1] = target: T1, GDF-11 (Homo sapiens, UniProt O95390); test: HepG2 reporter gene assay, Evaluation Procedure (2): 2-concentrations assay, GDF-11 inhibition; type: cell-based; conditions: for inhibition at 0.03 µM: HepG2, peptide 30nM, read-out: GDF11 Inhibition 30nM; for inhibition at 0.03 µM / inhibition at 0.1 µM: GDF-11 10 ng/mL; for inhibition at 0.1 µM: HepG2, peptide 100nM, read-out: GDF11 Inhibition 100nM; for inhibition: read-out: inhibition rate (GDF-11 inhibition assay)
T1 construct: purchased R&D systems 1958-GD-G8/CF
T1 sequence (O95390 299-407): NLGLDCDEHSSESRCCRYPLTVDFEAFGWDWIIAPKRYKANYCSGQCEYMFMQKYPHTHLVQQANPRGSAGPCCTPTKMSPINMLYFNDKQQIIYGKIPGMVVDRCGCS
Procedure: (§1) The pGL3(CAGA)12-luc plasmid, namely a pGL3 vector (E1751, Promega) having a luciferase gene inserted downstream of a promoter sequence with 12 CAGA repeats attached, was transfected into HepG2 cell line (HB-8065, ATCC). The culture of HepG2 cell line (HB-8065, ATCC) was performed as in the Evaluation Procedure (1).
(§2) Myostatin (788-G8/CF, R&D systems) or GDF-11 (1958-GD-G8/CF, R&D systems) was added at a final concentration of 10 ng/mL. […] At this time, blank wells, in which neither myostatin, GDF-11, nor each peptide was added, were also prepared and incubated in a CO2 incubator (37°C, 5% CO2) for 20 to 24 hours.
(§3) The medium containing the cells was removed, and a mixture containing PBS (14190144, Thermo) and a chromogenic substrate One-Glo Luciferase Assay System (E6120, Promega) at a ratio of 1:1 was added to each well at 100 µL/well. This was stirred with a plate shaker for 5 min and transferred to a 384-well plate (3570, Corning) at a volume of 20 µL/well.
(§4) The plate was centrifuged at 1,000 × g for 1 min and the luminescence signal (700 nm luminescence) was measured using a plate reader (Envision 2104, PerkinElmer). Based on the measurement results, the inhibition rate at each peptide concentration was calculated. […]

[2] = target: T2, Myostatin (Homo sapiens, UniProt O14793); test: HepG2 reporter gene assay, Evaluation Procedure (2): 2-concentrations assay, myostatin inhibition; type: cell-based; conditions: HepG2
T2 construct: active myostatin (also called mature myostatin) is a homodimer consisting of two C-terminal growth factor domains; purchased R&D systems 788-G8/CF
T2 sequence (O14793 267-375): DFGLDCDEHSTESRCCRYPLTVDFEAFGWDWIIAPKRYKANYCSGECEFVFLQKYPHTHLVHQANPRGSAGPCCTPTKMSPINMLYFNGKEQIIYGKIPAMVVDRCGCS
Procedure: as §1, §2, §3, §4

[3] = peptide 30nM, Myostatin 10 ng/mL, read-out: Myostatin Inhibition 30nM
[4] = peptide 100nM, Myostatin 10 ng/mL, read-out: Myostatin Inhibition 100nM

SMILES | inhibition at 0.03 µM [1] [%] | inhibition at 0.1 µM [1] [%] | inhibition at 0.03 µM [2, 3] [%] | inhibition at 0.1 µM [2, 4] [%] | inhibition ([1]; HepG2, first GDF-11 column of Table 7-3/7-4, GDF-11 10 ng/mL, peptide at the lower of the 2 concentrations) [%] | inhibition ([1]; HepG2, second GDF-11 column of Table 7-3/7-4, GDF-11 10 ng/mL, peptide at the higher of the 2 concentrations) [%] | inhibition at 0.1 µM ([2]; Table 7-3/7-4, myostatin 10 ng/mL, peptide at the higher of the 2 concentrations, read-out: inhibition rate (myostatin inhibition assay)) [%] | inhibition at 0.03 µM ([2]; Table 7-3/7-4, myostatin 10 ng/mL, peptide at the lower of the 2 concentrations, read-out: inhibition rate (myostatin inhibition assay)) [%]
CC[C@H](C)[C@@H]1NC(=O)[C@H](Cc2ccccc2)N(C)C(=O)[C@H](Cc2ccc(O)cc2)NC(=O)[C@H](Cc2c[nH]c3ccccc23)NC(=O)[C@H](C)NC(=O)CN(CCCC(=O)O)C(=O)CSC[C@H](C(N)=O)NC(=O)[C@H](Cc2ccccc2)N(C)C(=O)[C@H](C)N(C)C(=O)[C@H](CC(C)C)NC(=O)[C@H](Cc2ccccc2)N(C)C(=O)[C@H](CCCNC(=N)N)NC(=O)[C@H](Cc2ccc(C(=O)O)cc2)NC(=O)[C@H](Cc2ccncc2)NC(=O)CN(C)C1=O [Myostatin_99_Variant_18] ({CH2CO}-[Gly(N(CH2)3COOH)]AWY[NMeF]I[Sar][4Pal][Phe(4-COOH)]R[NMeF]L[NMeA][NMeF][dC]-NH2; thioether N-15) | 0 | 0 | 56 | 80 |  |  |  | 
CCCCCCC[C@@H]1NC(=O)[C@H](Cc2ccccc2)N(C)C(=O)[C@H](CCCNC(=N)N)NC(=O)[C@H](Cc2ccc(C(=O)O)cc2)NC(=O)[C@H](Cc2cccc(OCC(=O)O)c2)NC(=O)[C@H](C)N(C)C(=O)[C@H]([C@@H](C)CC)NC(=O)[C@H](Cc2ccccc2)N(C)C(=O)[C@H](Cc2ccc(O)cc2)NC(=O)[C@H](Cc2cn(-c3ccc(OC)cc3)c3ccccc23)NC(=O)[C@H](C)NC(=O)CN(CCCC(=O)O)C(=O)CSC[C@H](C(=O)O)NC(=O)[C@H](Cc2ccccc2)N(C)C(=O)[C@H](C)N(C)C1=O [Myostatin_99_v379] ({CH2CO}-[Gly(N(CH2)3COOH)]A[X8]Y[NMeF]I[NMeA][Phe(3-OCH2COOH)][Phe(4-COOH)]R[NMeF][X1][NMeA][NMeF][dC]-OH; thioether N-15) |  |  |  |  | 0 | 0 | 100 | 100
CC[C@H](C)[C@@H]1NC(=O)[C@H](Cc2ccccc2)N(C)C(=O)[C@H](Cc2ccc(N)nc2)NC(=O)[C@H](Cc2c[nH]c3ccccc23)NC(=O)[C@H](C)NC(=O)CN(CCCC(=O)O)C(=O)CSC[C@H](C(N)=O)NC(=O)[C@H](Cc2ccccc2)N(C)C(=O)[C@H](C)N(C)C(=O)[C@H](CC(C)C)NC(=O)[C@H](Cc2ccccc2)N(C)C(=O)[C@H](CCCNC(=N)N)NC(=O)[C@H](Cc2cccnc2)NC(=O)[C@H](Cc2ccccc2)NC(=O)CN(C)C1=O [Myostatin_99_Variant_26] ({CH2CO}-[Gly(N(CH2)3COOH)]AW[3Pal(6-NH2)][NMeF]I[Sar]F[3Pal]R[NMeF]L[NMeA][NMeF][dC]-NH2; thioether N-15) | 0 | 0 | 26 | 50 |  |  |  | 
CC[C@H](C)[C@@H]1NC(=O)[C@H](Cc2ccccc2)N(C)C(=O)[C@H](Cc2ccc(O)cc2)NC(=O)[C@H](Cc2c[nH]c3ncccc23)NC(=O)[C@H](CCC(=O)O)NC(=O)[C@H](C)NC(=O)CSC[C@H](C(=O)N[C@H](CO)C(=O)N[C@H](CO)C(=O)N[C@H](CO)C(=O)N[C@H](CCCCN)C(=O)O)NC(=O)[C@H](Cc2ccccc2)N(C)C(=O)[C@H](C)N(C)C(=O)[C@H](CC(C)C)NC(=O)[C@H](Cc2ccccc2)N(C)C(=O)[C@H](CCCNC(=N)N)NC(=O)[C@H](Cc2ccc(C(=O)O)cc2)NC(=O)[C@H](Cc2ccccc2)NC(=O)CN(C)C1=O [Myostatin_99_v39] ({CH2CO}-AE[Trp(7-aza)]Y[NMeF]I[Sar]F[Phe(4-COOH)]R[NMeF]L[NMeA][NMeF][dC][dS][dS][dS][dK]-OH; thioether N-15) | 0 | 11 | 39 | 79 |  |  |  | 

Reference: patent EP4786487A1, “PEPTIDE” (Peptidream Inc, priority 2023, dated 2025)
